Laboratory results taken from ChEMBL document CHEMBL1121379, “Some short-chain N6-substituted adenosine analogues with antitumor properties” (1980).
Where “and” joins values, the source holds several entries; their conditions need not be identical. Identical values can stand only once.

Tests used:
Assay type in all cases: functional
[1] = system: Mus musculus; test: Antitumor activity against slow growing spontaneous mammary tumors in the DBA/2 Ha-DD mouse % increased in life span 3.8 mg/kg/day x 5 melphalan + 50 mg/kg/day
[2] = system: Mus musculus; test: antitumor activity against mouse leukemia, L-1210(DBA/2 Ha Mice) % increase in life span at 3.12 mg/kg of dose per day; conditions: L1210, dose 3.12 mg/kg
[3] = system: L1210; test: Concentration required for 50% growth inhibition of the following cell lines Leukemia L-1210 cells; conditions: Mus musculus, read-out: ID50 (the source's name)
[4] = species on record: Mus musculus; test: Concentration required for 50% growth inhibition of the following cell lines mouse fibro blasts; conditions: read-out: ID50 (the source's name)
[5] = system: Burkitts lymphoma cell; test: Concentration required for 50% growth inhibition of the following cell lines human burkitt lymphoma cells; conditions: read-out: ID50 (the source's name)
[6] = Concentration required for 50% growth inhibition of the following cell lines human fibro blast cells; conditions: read-out: ID50 (the source's name)
[7] = Concentration required for 50% growth inhibition of the following cell lines Carcinoma TA-3 cells; conditions: Mus musculus, TA3; read-out: ID50 (the source's name)
[8] = system: MCF7; test: Concentration required for 50% growth inhibition of human breast tumor cells MCF-7 human breast carcinoma cells; conditions: read-out: ID50 (the source's name)
[9] = system: Mus musculus; test: Antitumor activity against slow growing spontaneous mammary tumors in the DBA/2 Ha-DD mouse mean life span in days at 50 mg/kg give 5 times once in 5 days
[10] = system: Mus musculus; test: Antitumor activity against slow growing spontaneous mammary tumors in the DBA/2 Ha-DD mouse % increased in life span 3.8 mg/kg/day x 5 melphalan + 50 mg/kg/day compound
[11] = system: Mus musculus; test: Antitumor activity against slow growing spontaneous mammary tumors in the DBA/2 Ha-DD mouse number of days reacquired fro tumor growth 3.8 mg/kg/day x 5 melphalan once in 5 days; design: unit: days
[12] = Concentration required for 50% growth inhibition of the following cell lines sarcoma S-180 cells; conditions: Mus musculus, read-out: ID50 (the source's name)
[13] = Concentration required for 50% growth inhibition of human breast tumor cells SW-613 human breast adenocarcinoma cells; conditions: SW613, read-out: ID50 (the source's name)
[14] = Concentration required for 50% growth inhibition of the following cell lines human bladder carcinoma cells; conditions: read-out: ID50 (the source's name)
[15] = system: Mus musculus; test: Antitumor activity against mouse leukemia, L-1210(DBA/2 Ha Mice) mean life span ( days) of the mouse after the dosage at 1.56 mg/kg of dose per day
[16] = system: Mus musculus; test: Antitumor activity against mouse leukemia, L-1210(DBA/2 Ha Mice) % increase in life span at 3.12 mg/kg of dose per day; conditions: for ILS at 3.12 mg/kg: Mus musculus, L1210, dose 3.12 mg/kg
[17] = system: HeLa; test: Concentration required for 50% growth inhibition of the following cell lines Hela cells; conditions: Homo sapiens, read-out: ID50 (the source's name)
[18] = system: Mus musculus; test: Antitumor activity against mouse leukemia, L-1210(DBA/2 Ha Mice) mean life span (days) of the mouse after fractionated dosage(dose divided in two halves and administered in two daily injections) at 6.25 mg/kg of dose per day

SMILES | IC50 [3] [µM] | IC50 [4] [µM] | IC50 [5] [µM] | IC50 [6] [µM] | IC50 [7] [µM] | IC50 [8] [µM] | Life span ([9]; 50 mg/kg) | ILS [10] | Tumor half growth [11] | IC50 [12] [µM] | IC50 [13] [µM] | IC50 [14] [µM] | Life span [15] | ILS at 3.12 mg/kg [16] [%] | further results
C=CCNc1ncnc2c1ncn2[C@@H]1O[C@H](CO)[C@@H](O)[C@H]1O | 12 | 14 | 2.3 | 2.7 | 3 | 1.4 | 46.6 and 48 | 82.5% and 38.7% | 16 and 26 and 30 | 20 | 50 | 7.5 | – | – | ILS [1]: 42.8%; ILS at 3.12 mg/kg [2]: 8%; Life span ([15]; 1.56 mg/kg): 8.3 and 10
CC(C)Nc1ncnc2c1ncn2[C@@H]1O[C@H](CO)[C@@H](O)[C@H]1O | 19 | 20 | 27 | 6.5 | 13 | 6.3 | 63.3 and 54.8 and 23.6 | 25.5% and 60% and 63.1% | 17 and 24 | 30 | 150 | 11 | 7.3 | – | ILS ([16]; dose 3.12 mg/kg): 14.7% and 17.4% and 37.4%
C=C(C)CNc1ncnc2c1ncn2C1O[C@H](CO)[C@@H](O)[C@H]1O (stereo partly drawn) | 19 | 25 | 11 | 1.5 | 18 | – | – | 19% | 15 | – | 4 | 9 | 30 | – | –
C#CCNc1ncnc2c1ncn2C1O[C@H](CO)[C@@H](O)[C@H]1O (stereo partly drawn) | 1 | 3.1 | 8.3 | 2.8 | 2.5 | 1.6 | – | 60% | 18 | – | – | 3.8 | 8.2 | 20 | IC50 [17]: 3.5 µM
OC[C@H]1O[C@@H](n2cnc3c(NCc4ccccc4)ncnc32)[C@H](O)[C@@H]1O [N6-BENZYLADENOSINE] | 8.5 | – | 11 | – | 14 | 22 | – | 10.9% and 26% | 20 and 21 | 45 | 4 | – | 9.7 | 41 | Life span [18]: 38.8; Life span [9]: 62.6
